Like-named read-outs stand apart in the source and are kept apart here.
Columns and labels:
GPR139 = target: T1, GPR139 (Homo sapiens, UniProt Q6DWJ6); test: GPR139 Agonist titration / agonist counterscreen assay (calcium detection, HEK-GPR139 cells); assay type: cell-based; design: expressed in transfected cells; host or cells: HEK Aequorin cells, Maxcyte transient transfection; conditions: GPR139 Agonist Activity; for Averaged Max % Response (±St. Dev.): activity relative to known control; for EC50: read-out: EC50
T1 sequence (Q6DWJ6 1-353): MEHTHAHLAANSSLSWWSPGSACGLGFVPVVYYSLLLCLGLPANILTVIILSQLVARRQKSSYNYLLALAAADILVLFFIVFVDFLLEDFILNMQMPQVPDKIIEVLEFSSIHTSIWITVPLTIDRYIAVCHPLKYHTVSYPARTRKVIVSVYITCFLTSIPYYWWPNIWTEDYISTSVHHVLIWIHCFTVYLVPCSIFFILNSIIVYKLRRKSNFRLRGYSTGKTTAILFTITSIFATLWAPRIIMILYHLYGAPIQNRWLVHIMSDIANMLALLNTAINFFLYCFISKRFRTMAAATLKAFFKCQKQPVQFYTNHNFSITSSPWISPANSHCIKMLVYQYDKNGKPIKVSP
Method: GPR activity was assessed using a calcium detection assay. […] Negative control samples were treated with DMSO. […] Intracellular calcium was measured using Calcium 5.

parental HEK cells = test: HEK parental Agonist Counterscreen Assay (non-transfected cells); assay type: cell-based; conditions: for Averaged Max % Response (±St. Dev.): activity relative to known control
Excerpt: The high control for the agonist counterscreen was Forskolin not acetylcholine.

[1] = values printed in E-notation without unit
[2] = HEK Agonist Activity, parental non-transfected HEK cells
[3] = HEK Agonist Activity section of Table 4 (parental HEK counterscreen)
[4] = Homo sapiens, HEK293, HEK Agonist Activity section of Table 4 (parental HEK counterscreen)
[5] = Homo sapiens, HEK293, HEK Agonist Activity, parental non-transfected HEK cells

Averaged Max % Response (±St. Dev.) (GPR139) [%]	Lipophilic Efficiency (logD) (GPR139; based on logD)	Lipophilic Efficiency (logP) (GPR139; based on logP)	Hill Slope (GPR139; fitted dose-response curve)	Efficiency Ligand (GPR139; ligand efficiency)	EC50 (GPR139; [1]) [nM]	Lipophilic Efficiency (logD) (parental HEK cells; HEK Agonist Activity)	Lipophilic Efficiency (logP) (parental HEK cells; HEK Agonist Activity)	Lipophilic Efficiency (logD) (parental HEK cells; HEK Agonist Activity section)	Lipophilic Efficiency (logP) (parental HEK cells; HEK Agonist Activity section)	Compound	Averaged Max % Response (±St. Dev.) (parental HEK cells; HEK Agonist Activity) [%]	Averaged Max % Response (±St. Dev.) (parental HEK cells; HEK Agonist Activity section) [%]	EC50 (parental HEK cells; [4]) [nM]	further results
109.87 ± 14.69	4.06	4.05	0.93	0.36	34.4	1.43	1.43			COc1cc(OC)cc(-c2nnc(NC(=O)Cc3cccc4ccccc34)o2)c1 [SR-01000012205]	1.53 ± 2.99			EC50 (parental HEK cells; [2]): > 14500 nM
118.40 ± 16.09	4.22	4.22	0.20	0.43	22.4	1.42	1.42			CCc1cccc(NC(=O)Cn2ncc3c2-c2ccccc2OC3)c1 [SR-01000098944]	16.33 ± 3.15			EC50 (parental HEK cells; [2]): > 14100 nM
90.09 ± 14.61	3.32	3.28	1.08	0.38	103			1.19	1.15	Cc1cccc(OCC(=O)NNC(=O)C(C)Oc2ccc(Cl)cc2Cl)c1 (stereo not shown) [SR-01000318010]		12.20 ± 3.74		EC50 (parental HEK cells; [3]): > 14100 nM
106.33 ± 15.91								2.51	2.51	CC(C)CCNC(=O)CN1CCN(Cc2ccc(F)cc2Cl)C1=O [SR-01000161248]		−6.23 ± 14.84		Efficiency Ligand (GPR139): 0.38; Hill Slope (GPR139): 1.12; Lipophilic Efficiency (logD) (GPR139): 4.17; Lipophilic Efficiency (logP) (GPR139): 4.17; EC50 (GPR139; HEK-GPR139 cells): 309 nM; EC50 (parental HEK cells; [3]): > 14100 nM
96.13 ± 10.69								2.25	2.23	COc1ccc(Cl)cc1C(=O)NNC(=O)CCc1ccc([N+](=O)[O-])cc1 [SR-01000054340]		20.66 ± 8.49	> 14200	Efficiency Ligand (GPR139): 0.33; Hill Slope (GPR139): 0.74; Lipophilic Efficiency (logD) (GPR139): 3.45; Lipophilic Efficiency (logP) (GPR139): 3.43
101.45 ± 17.20	3.15	3.15	1.07	0.33	138			1.14	1.14	O=C(COc1ccc2ccccc2c1)NNC(=O)Cc1cccc2ccccc12 [SR-01000316766]		−0.94 ± 3.21	> 14100	
91.50 ± 11.81								1.97	1.93	CC(C)C(=O)NNC(=O)C(C)Oc1ccc(Cl)cc1Cl (stereo not shown) [SR-01000361172]		2.50 ± 11.74	> 14100	Efficiency Ligand (GPR139): 0.40; Hill Slope (GPR139): 1.48; Lipophilic Efficiency (logD) (GPR139): 2.81; Lipophilic Efficiency (logP) (GPR139): 2.78; EC50 (GPR139; HEK-GPR139 cells): 2000 nM
123.43 ± 12.00	3.93	3.93	0.62	0.46	61.7			1.55	1.55	O=C(CCC1CCCC1)NNC(=O)CSc1ccc(Cl)cc1 [SR-01000069439]		1.51 ± 2.29	> 14900	
80.15 ± 4.78	4.08	4.08	0.64	0.39	202			2.23	2.23	COc1cccc(CNC(=O)Nc2ccc(-c3cn[nH]c3)cc2)c1 [SR-00000005253]		−10.69 ± 5.73	> 14100	
95.57 ± 19.71	5.19	5.19	1.18	0.45	16.1	2.25	2.25			CC1CCC(NC(=O)CCC(=O)N2CCSc3ccccc32)CC1 (stereo not shown) [SR-01000159110]	3.44 ± 10.60			EC50 (parental HEK cells; [5]): > 14100 nM
102.55 ± 5.37	4.55	4.55	0.67	0.38	22.8	1.76	1.76			CCCn1c(CCC(=O)NCCc2ccc(OCC)cc2)nc2cccnc21 [SR-01000077930]	1.00 ± 2.79			EC50 (parental HEK cells; [5]): > 14100 nM
79.43 ± 7.55	4.54	4.54		0.41		1.20	1.20			O=C(CCc1nc2cccnc2n1Cc1cccs1)NCCc1ccccc1 [SR-01000077904]	−12.58 ± 9.87			EC50 (parental HEK cells; [5]): > 14100 nM
91.99 ± 13.68	2.98	2.96	1.03	0.41	100			0.98	0.95	Cc1ccccc1C(=O)NNC(=O)C(C)Oc1ccc(Cl)cc1Cl (stereo not shown) [SR-01000410694]		10.08 ± 3.68	> 10200	
97.82 ± 12.25	4.42	4.42	0.70	0.40	116			2.34	2.34	Cc1ccccc1CS(=O)(=O)CCC(=O)NC(C)c1ccccc1 (stereo not shown) [SR-01000145393]		10.41 ± 2.89	> 14100	
116.62 ± 3.81	3.89	3.71	0.26	0.23	40.1	1.64	1.46			O=C(NCCc1ccc(Cl)cc1)c1ccc(N2CC3CC(C2)c2cccc(=O)n2C3)c(NS(=O)(=O)c2ccc3c(c2)OCCO3)c1 (stereo not shown) [SR-01000583473]	54.64 ± 8.92			Hill Slope (parental HEK cells; HEK Agonist Activity): 0.45; EC50 (parental HEK cells; [2]): 7200 nM
78.27 ± 16.46								1.44	1.44	Cc1ccc(CC2CCC(CC(=O)CC3CCCCCCC3)C2=O)cc1 (stereo not shown) [SR-01000151470]		−9.17 ± 11.99	> 14100	Efficiency Ligand (GPR139): 0.31; Hill Slope (GPR139): 1.14; Lipophilic Efficiency (logD) (GPR139): 2.62; Lipophilic Efficiency (logP) (GPR139): 2.62
